Tested on: P. falciparum NF54 strain
Assay: [3H]hypoxanthine incorporation assay, individual drugs
Assay type: cell-based
Settings: Plasmodium falciparum, 72 h
Method: IC50 and drug interaction studies were performed as previously described ([27], [28]). […] Cultures were harvested onto glass fiber filters, washed, and the radioactivity was counted using a MicroBetaplate liquid scintillation counter and recorded as counts per minute (cpm) per well. Results are expressed as a percentage of the untreated controls (see the supplemental material for more details). page 2: 25 In vitro isobolograms 26 Compounds were tested against intraerythrocytic forms of P. falciparum derived from asynchronous stock cultures 27 of lab strain NF54 (Schiphol airport strain of unknown origin), as previously described.i,ii The culture medium was […] 29 mM HEPES, 25 mM NaHCO3 (pH 7.3), 0.36 mM hypoxanthine and 100 μg/mL neomycin. Human type A+ 30 erythrocytes served as host cells. […] 31 in humidified modular chambers. Testing of the individual drugs was carried out in 96-well microtiter plates. The 32 compounds were dissolved in DMSO (10 mg/mL), prediluted in hypoxanthine-free culture medium and titrated in […] After addition of an equal volume of parasite culture with a parasitemia of […] Parasite growth was measured by the incorporation of radiolabelled [3H]hypoxanthine (0.25 µCi in […] 37 assay duration) prior to the termination of the test. Cultures were harvested onto glass-fiber filters and washed with 38 distilled water. The radioactivity was counted using a MicroBetaplate liquid scintillation counter (Wallac, Zürich, 39 Switzerland) and the results recorded as counts per minute (cpm) per well at each drug concentration and expressed 40 as percentage of the untreated controls. Fifty percent inhibitory concentrations (IC50) were determined by linear 41 interpolation.v 42 43 For data interpretation, the IC50s of the drugs in combination were expressed as fractions of the IC50s of the drugs 44 alone. These fractions were called “Fractional Inhibitory Concentrations” (FIC) for drug A and for drug B, 45 respectively. 46 FIC Drug A = IC50 A (B) IC50 A […] 49 50 Formulation 51 Pyronaridine (tetraphosphate salt) and […] (succinate salt) were solubilized in a vehicle consisting of 70% […] 54 55 2

| Structure (SMILES) | EC50 |
| --- | --- |
| O=C1C(O)=C([C@H]2CC[C@H](c3ccc(Cl)cc3)CC2)C(=O)c2ccccc21 [atovaquone] | 0.4 nM |
| [H]/N=C(\N/C(=N/[H])Nc1ccc(Cl)cc1)NC(C)C [proguanil] | 5500 nM |

From article PMC7179297, “Preclinical Antimalarial Combination Study of M5717, a Plasmodium falciparum Elongation Factor 2 Inhibitor, and Pyronaridine, a Hemozoin Formation Inhibitor” (Antimicrobial Agents and Chemotherapy, 2020)
